Reference: US9566252B2, “Method for the alleviation of dyspareunia in women” (HORMOS MEDICAL LTD., priority 2000, dated 2017)
Read-outs that look alike come from different tables or passages of the source.

Legend:
[1] = test system: vaginal epithelium; details: for Change in maturity index for superficial cells (MI 3), mean: index 100 full estrogen, index 0 no estrogenicity; for Change in maturity index for parabasal cells (MI 1), mean: index 100 no estrogenicity, index 0 full estrogen; for Pathological changes in cervical smear samples: 3 months' treatment, any sample; for Change from baseline to post-treatment in karyopyknosis index for superficial cells, individual subjects: ospemifene 30, 60, 90 mg daily, raloxifene 60 mg daily, all cases except one
Description: Raloxifene (60 mg daily) was used as reference. […] There were 29 volunteers at each dose level, as well as in the raloxifene group. Ospemifene was administered in gelatine capsules containing either 30, 60 or 90 mg of ospemifene. […] The vaginal epithelium was assessed by karyopyknosis index which is a well known assessment method among the skilled persons. In this method, the vaginal fraction of the cervical smears is estimated as the percentage of the number of cells from different layers: the parabasal cell layer; the intermediate cell layer; and the superficial cell layer. Estrogenicity is seen by a shift towards superficial cell fraction. […] Samples were taken before and after the treatment (at 3 months).

[2] = test system: vaginal dryness; assay: Vaginal dryness symptoms by visual analogue scale (subjective estimates); format: in vivo, healthy postmenopausal female volunteers; details: FIG. 2; for Effect on vaginal dryness, individuals' subjective estimate (visual analogue scale): change pre-treatment to 3 months, all ospemifene dosage levels (30, 60, 90 mg daily), raloxifene 60 mg daily
Description: The vaginal dryness symptoms were also assessed by using a visual analogue scale where the volunteers themselves recorded their subjective estimates. The scale is based on a 100-mm line on paper. The left end represents no symptom and the right end the worst possible symptom. The change from pre-treatment to 3 months estimates was assessed and considered to be indicative of the treatment efficacy.

[3] = test system: sexual activity; details: of 70 patients followed up for 6 weeks
Text: In the clinical study, where the effects of ospemifene on quality of life and cardiovascular parameters were studied, the patients were asked for sexual activity. The questionnaire included “worsening” or “no effect” on sexual activity. Improvement on sexual activity was not asked. When 70 patients had been followed up for 6 weeks, 27 of them had spontaneously reported to the investigators increased sexual activity. Similar reports were independently obtained from different centers of the study.

[4] = clinical studies
Description: (§1) Tolerability and pharmacokinetics were also assessed.

[5] = test system: endometrium; details: for Increase in thickness of the endometrium, average: statistically not significant
Description: as §1

[6] = 30 mg daily perorally, 3 months
[7] = 60 mg daily perorally, 3 months
[8] = 90 mg daily perorally, 3 months

## OCCOc1ccc(/C(=C(/CCCl)c2ccccc2)c2ccccc2)cc1 [Ospemifene, (deaminohydroxy)toremifene]
[1]; [6]
  Change in maturity index for superficial cells (MI 3), mean: +12.4
  Change in maturity index for parabasal cells (MI 1), mean: −40
[1]; [7]
  Change in maturity index for superficial cells (MI 3), mean: +5.5
  Change in maturity index for parabasal cells (MI 1), mean: −26
[1]; [8]
  Change in maturity index for superficial cells (MI 3), mean: +12.5
  Change in maturity index for parabasal cells (MI 1), mean: −48
[1]
  Pathological changes in cervical smear samples: No pathological changes
[1]; 12 weeks' treatment
  Change from baseline to post-treatment in karyopyknosis index for superficial cells, individual subjects: < 40
[1]; 30, 60, 90 mg daily, 3 months
  Estrogenic effect in the cervical smear: weak but statistically significant estrogenic effect
[1]; 30, 60 and 90 mg daily, 3 months, elderly female volunteers
  Effect on vaginal atrophy: significant decrease in vaginal atrophy
[1]; one case in the 90 mg group, 12 weeks' treatment
  Increase in karyopyknosis index for superficial cells, single highest case: 45
[2]; 60 mg daily, 3 months
  Effect on vaginal dryness, comparison of dose levels: best result
[2]
  Effect on vaginal dryness, individuals' subjective estimate (visual analogue scale): clear decreasing effect
[3]
  Patients spontaneously reporting increased sexual activity: 27
[4]
  Tolerability: excellent tolerability
[5]; 30 mg daily, 3 months
  Increase in thickness of the endometrium, average: 0.2 mm
[5]; 60 mg daily, 3 months
  Increase in thickness of the endometrium, average: 0.5 mm
[5]; 90 mg daily, 3 months
  Increase in thickness of the endometrium, average: 0.5 mm
[5]; 30, 60, 90 mg daily, 3 months
  Estrogenic effect on endometrial histology: weak estrogenic effect
  Malignant findings in the endometrium: no malignant findings
[5]; 30, 60, 90 mg daily, all measured values
  Measured values of endometrial thickness: smaller than 8 mm

## O=C(c1ccc(OCCN2CCCCC2)cc1)c1c(-c2ccc(O)cc2)sc2cc(O)ccc12 [Raloxifene, raloxifene, reference compound]
[1]; [7]
  Change in maturity index for superficial cells (MI 3), mean: −0.3
  Change in maturity index for parabasal cells (MI 1), mean: −2
[1]
  Pathological changes in cervical smear samples: No pathological changes
[1]; 12 weeks' treatment
  Change from baseline to post-treatment in karyopyknosis index for superficial cells, individual subjects: no one in the raloxifene group (FIG. 1D) had a significant change
[2]
  Effect on vaginal dryness, individuals' subjective estimate (visual analogue scale): only a minor decrease
